Test results published in patent publication US20020044971A1, “Dissolution rate of poorly soluble drugs” (priority 2000, published 2002).
≈ marks a conversion by molar mass, not a printed value. Like-named read-outs stand apart in the source and are kept apart here.

What was measured:
[1] = aqueous solubility, cited from earlier work
[2] = Volume of fluid required to achieve complete dissolution of the dose; assay type: physicochemical; conditions: for the dose listed in Table 1
Description: The volume requirement of the boundary layer is a function of the solubilizing effect of the surfactant. This volume can be calculated by dividing the mass of the particle by the solubility of the drug.

Structure (SMILES) | Solubility [1] [µg/mL] | YDISSOLUTION (volume of fluid required to achieve complete dissolution) [2] [L] | Solubility ([1]; measured at 39° C.) [µg/mL]
NC(=O)N1c2ccccc2C=Cc2ccccc21 [Carbamazepine] | 400 (≈ 1690 µM) | 4.3 | 
O=C(O)c1cc(-c2ccc(F)cc2F)ccc1O [Diflumisal] | 10 (≈ 40 µM) | 3.6 | 
C[C@H]1O[C@@H](O[C@H]2[C@@H](O)C[C@H](O[C@H]3[C@@H](O)C[C@H](O[C@H]4CC[C@@]5(C)[C@H](CC[C@@H]6[C@@H]5C[C@@H](O)[C@]5(C)[C@@H](C7=CC(=O)OC7)CC[C@]65O)C4)O[C@@H]3C)O[C@@H]2C)C[C@H](O)[C@@H]1O [Digoxin] |  | 0.021 | 
CC(C)(C)NC(=O)[C@H]1CC[C@H]2[C@@H]3CC[C@H]4NC(=O)C=C[C@]4(C)[C@H]3CC[C@]12C [Finasteride] | 1 (≈ 2.68 µM) | 5.0 | 
OC(Cn1cncn1)(Cn1cncn1)c1ccc(F)cc1F [Fluconazole] | 100 (≈ 327 µM) | 2.0 | 
COC1=CC(=O)C[C@@H](C)[C@]12Oc1c(Cl)c(OC)cc(OC)c1C2=O [Griseofulvin] |  | 29.4 | 17 (≈ 48.2 µM)
CCC(C)n1ncn(-c2ccc(N3CCN(c4ccc(OCC5COC(Cn6cncn6)(c6ccc(Cl)cc6Cl)O5)cc4)CC3)cc2)c1=O (stereo not drawn) [Itraconozole] | 1 (≈ 1.42 µM) | 9.9 | 
CN1C(C(=O)Nc2ccccn2)=C(O)c2ccccc2S1(=O)=O [Piroxicam] | 10 (≈ 30.2 µM) | 8.2 | 
